Literature values as cited in publication PMC5641599 (Molecular Metabolism, 2017).
Read-outs that look alike come from different tables or passages of the source.

What was measured:
MC4R variants [1] = settings: cited from earlier work
MC4R variants [2] = settings: cited from earlier work; remark: listed apart in the source

Substance: NDP-MSH
- cAMP Emax - Ligand no.3 (MC4R variants [1]; MC4R C40R, COS-7 cell line, ref Tarnow P, J Biol Chem, 2003): 118.6 % of WT
- cAMP Emax - Ligand no.3 (MC4R variants [1]; MC4R C40R, ref Rong R, Clin Endocrinol, 2006): 87.0 % of WT
- cAMP Emax - Ligand no.3 (MC4R variants [1]; MC4R C40Y, COS-7 cell line, ref Hughes DA, Hum Genet, 2009): 103.0 % of WT
- cAMP Emax - Ligand no.3 (MC4R variants [1]; MC4R D37G, ref Hughes DA, Hum Genet, 2009): 83.0 % of WT
- cAMP Emax - Ligand no.3 (MC4R variants [1]; MC4R F280AfsX12, ref Xiang Z, Biochemistry, 2006): 0.0 % of WT
- cAMP Emax - Ligand no.3 (MC4R variants [1]; MC4R I251WfsX34, ref Xiang Z, Biochemistry, 2010): 0.0 % of WT
- cAMP Emax - Ligand no.3 (MC4R variants [1]; MC4R L211MfsX6, HEK293, ref Ho G, J Biol Chem, 1999): 0.0 % of WT
- cAMP Emax - Ligand no.3 (MC4R variants [1]; MC4R L211MfsX6, ref Xiang Z, Biochemistry, 2006): 0.0 % of WT
- cAMP Emax - Ligand no.3 (MC4R variants [1]; MC4R Q43X, ref Alfieri A, Gene, 2010): 0.0 % of WT
- cAMP Emax - Ligand no.3 (MC4R variants [1]; MC4R Q307X, COS-7 cell line, ref Reinehr T, Obesity, 2009): 0.0 % of WT
- cAMP Emax - Ligand no.3 (MC4R variants [1]; MC4R Q307X, ref Santoro N, BMC Med Genet, 2009): 0.0 % of WT
- cAMP Emax - Ligand no.3 (MC4R variants [1]; MC4R R7C, COS-7 cell line, ref Hinney A, J Clin Endocrinol Metab, 2006): 75.0 % of WT
- cAMP Emax - Ligand no.3 (MC4R variants [1]; MC4R R7C, ref Fan ZC, J Cell Mol Med, 2009): 102.0 % of WT
- cAMP Emax - Ligand no.3 (MC4R variants [1]; MC4R S19AfsX34, ref Alfieri A, Gene, 2010): 0.0 % of WT
- cAMP Emax - Ligand no.3 (MC4R variants [1]; MC4R S36T, COS-7 cell line, ref Hughes DA, Hum Genet, 2009): 88.0 % of WT
- cAMP Emax - Ligand no.3 (MC4R variants [1]; MC4R T11A, ref Tao YX, J Clin Endocrinol Metab, 2005): 109.0 % of WT
- cAMP Emax - Ligand no.3 (MC4R variants [1]; MC4R T246DfsX41, HEK293, ref Ho G, J Biol Chem, 1999): 0.0 % of WT
- cAMP Emax - Ligand no.3 (MC4R variants [1]; MC4R VADML88_92del, ref Donohoue PA, J Clin Endocrinol Metab, 2003): 0.0 % of WT
- cAMP Emax - Ligand no.3 (MC4R variants [1]; MC4R W16X, COS-7, ref Bolze F, Pharmacogenomics J, 2013): 20.0 % of WT
- cAMP Emax - Ligand no.3 (MC4R variants [1]; MC4R Y35C, ref Rong R, Clin Endocrinol, 2006): 105.0 % of WT
- cAMP Emax - Ligand no.3 (MC4R variants [1]; MC4R Y35X, ref Xiang Z, Biochemistry, 2006): 0.0 % of WT
- Binding Bmax (% of WT) (MC4R variants [2]; MC4R A303P, ref Hohenadel MG, Int J Obes, 2014): 22.4 % of WT
- Binding Bmax (% of WT) (MC4R variants [2]; MC4R A303T, ref Tan K, Endocrinology, 2009): 86.6 % of WT
- Binding Bmax (% of WT) (MC4R variants [2]; MC4R C84R, HEK293 cell line, ref Huang H, Int J Biol Sci, 2014): 5.0 % of WT
- Binding Bmax (% of WT) (MC4R variants [2]; MC4R C84R, ref Fan ZC, J Cell Mol Med, 2009): 0.0 % of WT
- Binding Bmax (% of WT) (MC4R variants [2]; MC4R C271Y, HEK293 cell line, ref Huang H, Int J Biol Sci, 2014): 70.0 % of WT
- Binding Bmax (% of WT) (MC4R variants [2]; MC4R C271Y, ref Tao YX, Endocrinology, 2003): 0.0 % of WT
- Binding Bmax (% of WT) (MC4R variants [2]; MC4R C271Y, ref Xiang Z, Biochemistry, 2006): 6.7 % of WT
- Binding Bmax (% of WT) (MC4R variants [2]; MC4R D90N, COS-7 cell line, ref Biebermann H, Diabetes, 2003): 80.0 % of WT
- Binding Bmax (% of WT) (MC4R variants [2]; MC4R D90N, ref Xiang Z, Biochemistry, 2010): 108.1 % of WT
- Binding Bmax (% of WT) (MC4R variants [2]; MC4R E61K, ref Tan K, Endocrinology, 2009): 39.6 % of WT
- Binding Bmax (% of WT) (MC4R variants [2]; MC4R E61K, ref Xiang Z, Biochemistry, 2010): 2.0 % of WT
- Binding Bmax (% of WT) (MC4R variants [2]; MC4R E308K, ref Xiang Z, Biochemistry, 2010): 37.8 % of WT
- Binding Bmax (% of WT) (MC4R variants [2]; MC4R F51L, ref Tao YX, J Clin Endocrinol Metab, 2005): 108.0 % of WT
- Binding Bmax (% of WT) (MC4R variants [2]; MC4R F51L, ref Xiang Z, Biochemistry, 2010): 113.5 % of WT
- Binding Bmax (% of WT) (MC4R variants [2]; MC4R G55D, ref Tan K, Endocrinology, 2009): 68.6 % of WT
- Binding Bmax (% of WT) (MC4R variants [2]; MC4R G55V, ref Hohenadel MG, Int J Obes, 2014): 55.4 % of WT
- Binding Bmax (% of WT) (MC4R variants [2]; MC4R G55V, ref Tan K, Endocrinology, 2009): 128.5 % of WT
- Binding Bmax (% of WT) (MC4R variants [2]; MC4R G98R, HEK293 cell line, ref Huang H, Int J Biol Sci, 2014): 0.0 % of WT
- Binding Bmax (% of WT) (MC4R variants [2]; MC4R G98R, ref Xiang Z, Biochemistry, 2010): 0.541 % of WT
- Binding Bmax (% of WT) (MC4R variants [2]; MC4R I69R, HEK293 cell line, ref Huang H, Int J Biol Sci, 2014): 0.0 % of WT
- Binding Bmax (% of WT) (MC4R variants [2]; MC4R I69T, ref Tan K, Endocrinology, 2009): 24.8 % of WT
- Binding Bmax (% of WT) (MC4R variants [2]; MC4R I69T, ref Xiang Z, Biochemistry, 2010): 8.1 % of WT
- Binding Bmax (% of WT) (MC4R variants [2]; MC4R I102S, ref Roubert P, J Endocrinol, 2010): 23.5 % of WT
- Binding Bmax (% of WT) (MC4R variants [2]; MC4R I102S, ref Tao YX, J Clin Endocrinol Metab, 2005): 0.0 % of WT
- Binding Bmax (% of WT) (MC4R variants [2]; MC4R I102S, ref Xiang Z, Biochemistry, 2006): 1.6 % of WT
- Binding Bmax (% of WT) (MC4R variants [2]; MC4R I102T, ref Larsen LH, J Clin Endocrinol Metab, 2005): 115.0 % of WT
- Binding Bmax (% of WT) (MC4R variants [2]; MC4R I102T, ref Roubert P, J Endocrinol, 2010): 51.0 % of WT
- Binding Bmax (% of WT) (MC4R variants [2]; MC4R I102T, ref Tao YX, J Clin Endocrinol Metab, 2005): 20.0 % of WT
- Binding Bmax (% of WT) (MC4R variants [2]; MC4R I301T, ref Nijenhuis WA, J Biol Chem, 2003): 10.0 % of WT
